This passage reports fraction unbound results from ChEMBL document CHEMBL3525956, “Species independence in brain tissue binding using brain homogenates” (Drug Metab Dispos, 2011).

A short description of series [1]: Fraction unbound in Wistar Han rat brain homogenates at 1 uM after 6 hrs by equilibrium dialysis method. Particulars: brain homogenate. For orientation: Equilibrium dialysis compares concentrations on both sides of a semipermeable membrane.
A short description of series [2]: Fraction unbound in Hartley guinea pig brain homogenates at 1 uM after 6 hrs by equilibrium dialysis method. Particulars: brain homogenate.
Series [3] in a line: Fraction unbound in human occipital cortex at 1 uM after 6 hrs by equilibrium dialysis method.
A short description of series [4]: Fraction unbound in Sprague-Dawley rat brain homogenates at 1 uM after 6 hrs by equilibrium dialysis method. To be noted: brain homogenate.
Series [5] can be described thus: Fraction unbound in CD-1 mouse brain homogenates at 1 uM after 6 hrs by equilibrium dialysis method. Particulars: brain homogenate.
Series [6] in a line: Fraction unbound in Beagle dog brain homogenates at 1 uM after 6 hrs by equilibrium dialysis method. To be noted: brain homogenate.
The nature of series [7]: Fraction unbound in cynomolgus monkey brain homogenates at 1 uM after 6 hrs by equilibrium dialysis method. Particulars: brain homogenate.

One may read the fraction unbound as the share of the substance not bound to proteins or other matrix. Take `CCCc1nc2c(C)cc(-c3nc4ccccc4n3C)cc2n1Cc1ccc(-c2ccccc2C(=O)O)cc1`: the free fraction (fraction unbound) at 6 h, 1 µM in series [1] was found to be 0.013; in series [2] it was 0.008; in series [3], 0.014; in series [4], 0.017; in series [5] it was 0.01; in series [6], 0.011. Besides, the free fraction (fraction unbound) at 6 h, 1 µM in series [7] was 0.013.

As to `NC12CC3CC(CC(C3)C1)C2` [AMANTADINE], the fraction unbound at 6 h, 1 µM in series [1] turned out to be 0.213; in series [2], 0.178; in series [3], 0.171; in series [4] it was 0.147; in series [5], 0.181; in series [6], 0.218. Further, the fraction unbound at 6 h, 1 µM in series [7] turned out to be 0.1.

As for `C[C@@H](O[C@H]1OCCN(Cc2n[nH]c(=O)[nH]2)[C@H]1c1ccc(F)cc1)c1cc(C(F)(F)F)cc(C(F)(F)F)c1` [APREPITANT], the fraction unbound at 6 h, 1 µM in series [1] came to 0.001; in series [2], 0.001; in series [3], 0.001; in series [4], 0.001; in series [5], 0.002; in series [6], 0.001. For the same compound, the fraction unbound at 6 h, 1 µM in series [7] turned out to be 0.002.

For the compound `O=C1CCc2ccc(OCCCCN3CCN(c4cccc(Cl)c4Cl)CC3)cc2N1` [ARIPIPRAZOLE], the fraction unbound at 6 h, 1 µM in series [1] was 0.001; in series [2] it was 0.001; in series [3], 0.002; in series [4], 0.001; in series [5] it was 0.001; in series [6], 0.001. In series [7], the fraction unbound at 6 h, 1 µM was found to be 0.001.

For the compound `CN1CCCC(n2nc(Cc3ccc(Cl)cc3)c3ccccc3c2=O)CC1` (stereo not given) [AZELASTINE], the fraction unbound at 6 h, 1 µM is 0.012 in series [1]; 0.009 in series [2]; 0.009 in series [4]; 0.012 in series [5]; 0.011 in series [6]; 0.014 in series [7].

Take `CC(C)C[C@H]1C(=O)N2CCC[C@H]2[C@]2(O)O[C@](NC(=O)[C@@H]3C=C4c5cccc6[nH]c(Br)c(c56)C[C@H]4N(C)C3)(C(C)C)C(=O)N12` [BROMOCRIPTINE]: the fraction unbound at 6 h, 1 µM was 0.002 in series [1]; 0.002 in series [2]; 0.002 in series [3]; 0.001 in series [4]; 0.002 in series [5]; 0.002 in series [6]. The compound further had a fraction unbound at 6 h, 1 µM in series [7] of 0.002.

Take `CCCCN1CCCCC1C(=O)Nc1c(C)cccc1C` (stereo not given) [BUPIVACAINE]: the fraction unbound at 6 h, 1 µM in series [1] turned out to be 0.15; in series [2] it was 0.204; in series [3], 0.232; in series [4] it was 0.098; in series [5], 0.274; in series [6], 0.211. The compound also gave a fraction unbound at 6 h, 1 µM in series [7] of 0.195.

Regarding `CC(NC(C)(C)C)C(=O)c1cccc(Cl)c1` (stereo not given) [BUPROPION], the fraction unbound at 6 h, 1 µM in series [1] turned out to be 0.132; in series [2], 0.177; in series [3], 0.195; in series [4], 0.171; in series [5] it was 0.133; in series [6], 0.213. In series [7], the fraction unbound at 6 h, 1 µM came to 0.167.

Take `NC(=O)N1c2ccccc2C=Cc2ccccc21` [CARBAMAZEPINE]: the fraction unbound at 6 h, 1 µM in series [1] is 0.171; in series [2] it was 0.128; in series [3] it was 0.171; in series [4], 0.124; in series [5], 0.173; in series [6], 0.159. Besides, the fraction unbound at 6 h, 1 µM in series [7] came to 0.185.

Take `CN(C)CCCN1c2ccccc2Sc2ccc(Cl)cc21` [CHLORPROMAZINE]: the fraction unbound at 6 h, 1 µM in series [1] was 0.003; in series [2] it was 0.003; in series [3] it was 0.003; in series [4] it was 0.002; in series [5], 0.003; in series [6], 0.003. Besides, in series [7], the fraction unbound at 6 h, 1 µM was 0.004.

Consider `CCCNC(=O)NS(=O)(=O)c1ccc(Cl)cc1` [CHLORPROPAMIDE], for which the fraction unbound at 6 h, 1 µM turned out to be 0.223 in series [1]; 0.65 in series [2]; 0.583 in series [3]; 0.668 in series [4]; 0.441 in series [5]; 0.699 in series [7].

In the case of `CN(C)CCCC1(c2ccc(F)cc2)OCc2cc(C#N)ccc21` (stereo not given) [CITALOPRAM], the unbound share (fraction unbound) at 6 h, 1 µM worked out at 0.05 in series [1]; 0.038 in series [2]; 0.047 in series [3]; 0.03 in series [4]; 0.06 in series [5]; 0.057 in series [6]. Besides, the fraction unbound at 6 h, 1 µM in series [7] came to 0.061.

For `NC1CCN(c2c(F)cc3c(=O)c(C(=O)O)cn(C4CC4)c3c2Cl)C1` (stereo not given) [CLINAFLOXACIN], the fraction unbound at 6 h, 1 µM came out at 0.148 in series [1]; 0.167 in series [2]; 0.157 in series [3]; 0.435 in series [4]; 0.377 in series [5]; 0.398 in series [6]. This compound came in with a fraction unbound at 6 h, 1 µM in series [7] of 0.139.

For the compound `CN(C)CCCN1c2ccccc2CCc2ccc(Cl)cc21` [CLOMIPRAMINE], the fraction unbound at 6 h, 1 µM in series [1] stood at 0.004; in series [2], 0.003; in series [3], 0.004; in series [4], 0.003; in series [5] it was 0.004; in series [6], 0.004. This compound also returned a fraction unbound at 6 h, 1 µM in series [7] of 0.006.

Turning to `CNCCCN1c2ccccc2CCc2ccccc21` [DESIPRAMINE], the unbound share (fraction unbound) at 6 h, 1 µM came to 0.013 in series [1]; 0.007 in series [2]; 0.011 in series [3]; 0.008 in series [4]; 0.011 in series [5]; 0.017 in series [6]. The compound also gave a fraction unbound at 6 h, 1 µM in series [7] of 0.012.

Turning to `CCN(CC)C(=O)/C(C#N)=C/c1cc(O)c(O)c([N+](=O)[O-])c1` [ENTACAPONE], the fraction unbound at 6 h, 1 µM was determined as 0.021 in series [1]; 0.019 in series [2]; 0.025 in series [3]; 0.017 in series [4]; 0.026 in series [5]; 0.02 in series [6]. The compound also yielded a fraction unbound at 6 h, 1 µM in series [7] of 0.031.

`CCCCCCCN(CC)CCCC(O)c1ccc(NS(C)(=O)=O)cc1` (stereo not given) [IBUTILIDE]: the fraction unbound at 6 h, 1 µM in series [1] was 0.104; in series [2], 0.075; in series [3], 0.091; in series [4] it was 0.081; in series [5], 0.114; in series [6], 0.119. In addition, in series [7], the fraction unbound at 6 h, 1 µM was 0.078.

Consider `COc1ccc2c(c1)c(CC(=O)O)c(C)n2C(=O)c1ccc(Cl)cc1` [INDOMETHACIN], for which the fraction unbound at 6 h, 1 µM in series [1] turned out to be 0.044; in series [2], 0.044; in series [3] it was 0.055; in series [4], 0.028; in series [5] it was 0.052; in series [6], 0.035. This compound also had a fraction unbound at 6 h, 1 µM in series [7] of 0.053.

In the case of `CCN(CC)CCNC(=O)c1cc(Cl)c(N)cc1OC` [METOCLOPRAMIDE], the fraction unbound at 6 h, 1 µM is 0.224 in series [1]; 0.237 in series [2]; 0.295 in series [3]; 0.145 in series [4]; 0.23 in series [5]; 0.294 in series [6]. In addition, the fraction unbound at 6 h, 1 µM in series [7] amounted to 0.413.

Regarding `COC(=O)C1=C(C)NC(C)=C(C(=O)OCCN(C)Cc2ccccc2)C1c1cccc([N+](=O)[O-])c1` (stereo not given) [NICARDIPINE], the fraction unbound at 6 h, 1 µM was 0.005 in series [1]; 0.004 in series [2]; 0.006 in series [3]; 0.008 in series [4]; 0.004 in series [5]; 0.006 in series [6]. Moreover, the fraction unbound at 6 h, 1 µM in series [7] was 0.006.

`COCCOC(=O)C1=C(C)NC(C)=C(C(=O)OC(C)C)C1c1cccc([N+](=O)[O-])c1` (stereo not given) [NIMODIPINE]: the free fraction (fraction unbound) at 6 h, 1 µM is 0.01 in series [1]; 0.007 in series [2]; 0.008 in series [3]; 0.009 in series [4]; 0.007 in series [5]; 0.007 in series [6]. The fraction unbound at 6 h, 1 µM in series [7] is 0.009.

Regarding `CN1Cc2c(N)cccc2C(c2ccccc2)C1` (stereo not given) [NOMIFENSINE], the fraction unbound at 6 h, 1 µM in series [1] was determined as 0.066; in series [2], 0.068; in series [3], 0.071; in series [4], 0.064; in series [5], 0.078; in series [6], 0.072. In series [7], the fraction unbound at 6 h, 1 µM was 0.068.

For `CNCCC=C1c2ccccc2CCc2ccccc21` [NORTRIPTYLINE], the fraction unbound at 6 h, 1 µM in series [1] is 0.007; in series [2] it was 0.006; in series [3] it was 0.006; in series [4], 0.005; in series [5], 0.008; in series [6] it was 0.007. The fraction unbound at 6 h, 1 µM in series [7] was determined as 0.009.

With `CN[C@H]1CC[C@@H](c2ccc(Cl)c(Cl)c2)c2ccccc21` [SERTRALINE], in series [3], the fraction unbound at 6 h, 1 µM was 0.001.
